Assays:
[1] = molecular target: T1, SHP-2 full-length protein (Homo sapiens, UniProt Q06124); experiment: Inhibition of SHP-2 kinase activity (Homogeneous Full Length SHP-2 Assay Kit); assay type: biochemical; conditions: relative IC50, full-length SHP-2 with activating peptide
T1 construct: purchased BPS Bioscience 79330
T1 sequence (Q06124 1-593): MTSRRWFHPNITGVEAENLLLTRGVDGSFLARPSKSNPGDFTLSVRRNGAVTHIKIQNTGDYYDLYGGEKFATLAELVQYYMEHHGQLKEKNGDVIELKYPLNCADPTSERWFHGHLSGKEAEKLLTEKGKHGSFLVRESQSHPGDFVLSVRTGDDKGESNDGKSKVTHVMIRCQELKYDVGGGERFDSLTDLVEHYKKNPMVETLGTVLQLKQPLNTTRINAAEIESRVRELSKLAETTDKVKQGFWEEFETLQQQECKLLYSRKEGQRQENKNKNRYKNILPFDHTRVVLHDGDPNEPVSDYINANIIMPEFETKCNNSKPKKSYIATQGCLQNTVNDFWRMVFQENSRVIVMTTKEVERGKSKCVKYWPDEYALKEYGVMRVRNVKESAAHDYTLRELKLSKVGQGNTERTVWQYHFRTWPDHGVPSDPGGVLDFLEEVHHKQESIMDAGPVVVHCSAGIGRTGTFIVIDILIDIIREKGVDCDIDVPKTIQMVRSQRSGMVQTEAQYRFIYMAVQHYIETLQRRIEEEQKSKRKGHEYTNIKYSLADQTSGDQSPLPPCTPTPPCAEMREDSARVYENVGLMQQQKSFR
Procedure: The objective of this test is to determine the inhibitory effect of the compounds on SHP-2 full-length protein allosteric activity.
Experimental method: Homogeneous Full Length SHP-2 Assay Kit (BPS Bioscience, #79330) was used to determine the in vitro SHP-2 activity. First, 18 μL of Master Mix was added to a 96-well low adsorption microplate (NUNC, #267342), i.e., the reaction buffer with a final concentration of 1× comprised 0.5 μM SHP-2 activating Peptide and 5 mM DTT. After centrifugation, 5 μL of test compound/DMSO was added to each well (the final DMSO content was 1%, V/V, the test compound was dissolved in DMSO to 1 mM, a three-fold serial dilution was carried out to obtain ten concentrations, the final concentration of the reaction system ranged from 1 μM to 0.05 nM). SHP-2 was diluted in the 1× reaction buffer to a final concentration of 0.06 nM, and the resulting solution was added to the reaction microplate (2 μL per well). Full activity control (compound only with DMSO) and full inhibition control (no SHP-2) were set up on the reaction plate. After centrifugation, the reaction mixture was incubated at room temperature for 60 minutes.
After completion of the incubation, 25 μL of Substrate solution, which comprised Substrate with a final concentration of 10 μM and 5 mM DTT, was added to each well. After centrifugation, the reaction mixture was incubated at room temperature for 30 minutes. After completion of the reaction, readings were measured on the Synergy H1 full-function microplate reader (BioTek) (excitation wavelength: 340 nm, emission wavelength: […], gain value: 75).
The IC50 value of the test compounds was calculated by fitting the percentage inhibition rate and data of ten concentrations to a four-parameter nonlinear logic formula with GraphPad prism.

[2] = test system: NCI-H358 cells; experiment: Proliferation inhibition of NCI-H358 cells (CellTiter-Glo); assay type: cell-based; conditions: Homo sapiens, NCI-H358, 72 h; 3 days incubation
Procedure: Experimental method: 3000 cells (90 μL of cell suspension) were inoculated to each well of a 96-well cell culture plate (Corning, #3610). The culture plate was incubated in an incubator overnight (37° C., 5% CO2). On the next day, 10 μL of gradient dilutions of the test compound solution (the final DMSO content was 0.2%, V/V, the final concentration of the reaction system ranged from 10 μM to 4.5 nM) was added to each well of the culture plate. At the same time, full activity control (compound only with DMSO) and full inhibition control (no cells) were set up on the reaction plate. The culture plate was incubated in the incubator for 3 days (37° C., 5% CO2).
After completion of the incubation, 50 μL of CellTiter-Glo reagent was added to each well of the cell culture plate, which was left to stand at room temperature for 10 minutes. The chemiluminescence signal value was measured in the Synergy H1 full-function microplate reader (BioTek). […] The IC50 value of the test compounds was calculated by fitting the percentage inhibition rate and data of eight concentrations to a four-parameter nonlinear logic formula with GraphPad prism.
The IC50 value was calculated by fitting the data of different concentrations and corresponding percentage inhibition rates to a four-parameter nonlinear logic formula with GraphPad prism.

Structure (SMILES)	IC50 [1] [nM]	IC50 [2] [nM]
Nc1nc(N2CCC3(CC2)Cc2ccccc2[C@H]3N)cnc1Sc1ccnc(C2CC2)c1Cl [Example 93, (S)-1′-(6-amino-5-((3-chloro-2-cyclopropylpyridin-4-yl)thio)pyrazin-2-yl)-1,3-dihydrospiro[indene-2,4′-piperidin]-1-amine]	4.33	31.1
Nc1nc(N2CCC3(CC2)Cc2ccccc2[C@H]3N)cnc1Sc1ccnc(N2CCC2)c1Cl [Example 100, (S)-1′-(6-amino-5-((2-(azetidin-1-yl)-3-chloropyridin-4-yl)thio)pyrazin-2-yl)-1,3-dihydrospiro[indene-2,4′-piperidin]-1-amine]	0.98	24.5
Cc1nc(N2CCC3(CC2)Cc2ccccc2[C@H]3N)c(CO)nc1-c1cccc(Cl)c1Cl [Example 105, (S)-(3-(1-amino-1,3-dihydrospiro[indene-2,4′-piperidin]-1′-yl)-6-(2,3-dichlorophenyl)-5-methylpyrazin-2-yl)methanol]	1.56	10.9
Nc1nc(N2CCC3(CC=C(C4CC4)[C@H]3N)CC2)c(F)nc1Sc1ccnc(N)c1Cl [Example 182, (S)-8-(6-amino-5-((2-amino-3-chloropyridin-4-yl)thio)-3-fluoropyrazin-2-yl)-2-cyclopropyl-8-azaspiro[4.5]dec-2-en-1-amine]	3.78	78.5
Nc1nc(N2CCC3(CC2)CCC2(CC2)[C@H]3N)cnc1Sc1ccnc(N)c1Cl [Example 151, (R)-8-(6-amino-5-((2-amino-3-chloropyridin-4-yl)thio)pyrazin-2-yl)-8-azadispiro[2.1.55.23]dodecan-4-amine]	7.71	137
N[C@@H]1c2ccccc2CC12CCN(c1cnc(Sc3ccnc(C4CC4)c3Cl)cn1)CC2 [Example 97, (S)-1′-(5-((3-chloro-2-cyclopropylpyridin-4-yl)thio)pyrazin-2-yl)-1,3-dihydrospiro[indene-2,4′-piperidin]-1-amine]	13.2	41.9
Nc1nc(N2CCC3(CC2)Cc2ccccc2[C@H]3N)cnc1Sc1ccnc(Cl)c1C1CC1 [Example 92, (S)-1′-(6-amino-5-((2-chloro-3-cyclopropylpyridin-4-yl)thio)pyrazin-2-yl)-1,3-dihydrospiro[indene-2,4′-piperidin]-1-amine]	4.17	10.5
Cc1nc(N2CCC3(CC2)Cc2ccccc2[C@H]3N)c(CO)nc1Sc1ccnc(N)n1 [Example 183, (S)-(3-(1-amino-1,3-dihydrospiro[indene-2,4′-piperidin]-1′-yl)-6-((2-aminopyrimidin-4-yl)thio)-5-methylpyrazin-2-yl)methanol]	6.7	105
Nc1nc(N2CCC3(CC2)Cc2nc(Cl)sc2[C@H]3N)cnc1Sc1ccnc(C2CC2)c1Cl [Example 99, (S)-1′-(6-amino-5-((3-chloro-2-cyclopropylpyridin-4-yl)thio)pyrazin-2-yl)-2-chloro-4,6-dihydrospiro[cyclopenta[d]thiazole-5,4′-piperidin]-6-amine]	29.6	32.8
Nc1nc(N2CCC3(CC2)CC2CC2[C@H]3N)cnc1Sc1ccnc(N)c1C1CC1 (stereo partly drawn) [Example 94, (2R)-1′-(6-amino-5-((2-amino-3-cyclopropylpyridin-4-yl)thio)pyrazin-2-yl)spiro[bicyclo[3.1.0]hexane-3,4′-piperidin]-2-amine]	11.7	184
Cc1nc(N2CCC3(CC2)Cc2ccccc2[C@H]3N)c(CO)nc1Sc1ccnc(N)c1Cl [Example 170, (S)-(3-(1-amino-1,3-dihydrospiro[indene-2,4′-piperidin]-1′-yl)-6-((2-amino-3-chloropyridin-4-yl)thio)-5-methylpyrazin-2-yl)methanol]	6.81	25.9
CC1=CCC2(CCN(c3nc(N)c(Sc4ccnc(N)c4Cl)nc3F)CC2)[C@@H]1N [Example 184, (S)-8-(6-amino-5-((2-amino-3-chloropyridin-4-yl)thio)-3-fluoropyrazin-2-yl)-2-methyl-8-azaspiro[4.5]dec-2-en-1-amine]	4.25	56.5
Nc1nc(N2CCC3(CC2)Cc2ccccc2[C@H]3N)cnc1Sc1ccnc(N2CCCC2)c1Cl [Example 103, (S)-1′-(6-amino-5-((3-chloro-2-(pyrrolidin-1-yl)pyridin-4-yl)thio)pyrazin-2-yl)-1,3-dihydrospiro[indene-2,4′-piperidin]-1-amine]	0.66	47
Nc1nc(N2CCC3(CC2)Cc2ccccc2[C@H]3N)cnc1Sc1ccnc(N)c1C1CC1 [Example 91, (S)-1′-(6-amino-5-((2-amino-3-cyclopropylpyridin-4-yl)thio)pyrazin-2-yl)-1,3-dihydrospiro[indene-2,4′-piperidin]-1-amine]	17.8	37
Nc1nc(N2CCC3(CC2)Cc2ccccc2[C@H]3N)cnc1Sc1ccnc(N2CC(F)(F)C2)c1Cl [Example 102, (S)-1′-(6-amino-5-((3-chloro-2-(3,3-difluoroazetidin-1-yl)pyridin-4-yl)thio)pyrazin-2-yl)-1,3-dihydrospiro[indene-2,4′-piperidin]-1-amine]	3.75	42.6
Nc1nc(N2CCC3(CC2)Cc2ccccc2[C@H]3N)cnc1Sc1ccnc(N2CCOCC2)c1Cl [Example 101, (S)-1′-(6-amino-5-((3-chloro-2-morpholinopyridin-4-yl)thio)pyrazin-2-yl)-1,3-dihydrospiro[indene-2,4′-piperidin]-1-amine]	5.22	37.7
Nc1nc(N2CCC3(CC2)Cc2ncsc2[C@H]3N)cnc1Sc1ccnc(C2CC2)c1Cl [Example 98, (S)-1′-(6-amino-5-((3-chloro-2-cyclopropylpyridin-4-yl)thio)pyrazin-2-yl)-4,6-dihydrospiro[cyclopenta[d]thiazole-5,4′-piperidin]-6-amine]	3.93	18.5
Nc1nc(N2CCC3(CC2)Cc2ccccc2[C@H]3N)c(Br)nc1Sc1ccnc(N)c1Cl [Example 95, (S)-1′-(6-amino-5-((2-amino-3-chloropyridin-4-yl)thio)-3-bromopyrazin-2-yl)-1,3-dihydrospiro[indene-2,4′-piperidin]-1-amine]	6.27	6.39
